Data on 53 compounds can be found in PubChem BioAssay AID1996.

Values after ≈ are worked out from the molar mass of the structure shown.

The conditions of this data set: buffer; pH 7.4; 200.0 µM.
`O=C(c1cc2cc(Br)ccc2s1)N1CCOCC1` came in with a kinetic solubility of 45.8 µg/mL (≈ 140 µM).
For `CCN(CC)S(=O)(=O)c1ccc2nc(CCl)[nH]c2c1`, the kinetic solubility was > 45.3 µg/mL.
In the case of `CCOc1ccc(CNC(=O)CCc2cn(C)c3ccccc23)cc1`, the solubility (kinetic) stood at 2.1 µg/mL (≈ 6.24 µM).
Compound `FC(F)(F)c1cnc2c(c1)[nH]c(=S)n2-c1ccc(Cl)cc1` showed a solubility (kinetic) of 3 µg/mL (≈ 9.1 µM).
Regarding `O=C(NNC(=O)C12CC3CC(CC(C3)C1)C2)c1ccccc1F`, the kinetic solubility was > 47.5 µg/mL.
As for `COC(=O)c1sccc1NC(=O)CC1NCCNC1=O` (stereo not drawn), the kinetic solubility came out at 42.1 µg/mL (≈ 142 µM).
Compound `CCn1c(=O)c2c(nc3n2CCN3c2ccccc2)n(C)c1=O` gave a solubility (kinetic) of 3.1 µg/mL (≈ 9.96 µM).
Turning to `CSc1nc2sc3c(c2c(=O)n1C)CCC3`, the kinetic solubility came out at 2.6 µg/mL (≈ 10.3 µM).
In the case of `COc1ccc(C(=O)ON=C2CCN(C)CC2)cc1.Cl`, the solubility (kinetic) was > 44.8 µg/mL.
As for `Cc1ccc(S(=O)(=O)NC(=O)COc2ccccc2)cc1`, the figure is > 45.8 µg/mL; as for `CCOc1ccc(S(=O)(=O)NC2=NCCCCC2)cc1`, > 44.5 µg/mL.
For `O=C(CCNC(=O)c1ccc(Br)cc1)NCc1ccco1`, the solubility (kinetic) is > 52.7 µg/mL.
Compound `COc1cccc(C(=O)COc2cccc(NC(=O)c3ccco3)c2)c1` showed a solubility (kinetic) of 14 µg/mL (≈ 39.8 µM).
`CC12CCC(C(=O)Nc3nc4ccccc4s3)(OC1=O)C2(C)C` (stereo not drawn) gave a kinetic solubility of 34.7 µg/mL (≈ 105 µM).
`CC1=CCC2C(=O)N(c3ccc(N4CCOCC4)cc3)C(=O)C2C1` (stereo not drawn) gave a kinetic solubility of 45.3 µg/mL (≈ 139 µM).
As for `CSc1ccccc1C(=O)Nc1c(C)cccc1C`, the solubility (kinetic) turned out to be 22.9 µg/mL (≈ 84.4 µM).
In turn, `CN(Cc1ccc(N(C)C)cc1)C(=O)c1cc2ccccc2o1` showed a kinetic solubility of 31.5 µg/mL (≈ 102 µM). This solubility kinetic and that of the compound before are within 1.5-fold of each other.
As for `CC(=O)N1CCC(O)(c2ccc3c(c2)OCO3)CC1`, the figure is 37.1 µg/mL (≈ 141 µM).
The compound `Cc1ccc(S(=O)(=O)N2CCCCC2C)cc1[N+](=O)[O-]` (stereo not drawn) registered a solubility (kinetic) of 24.2 µg/mL (≈ 81.1 µM).
With `Cc1cc(C)cc(NS(=O)(=O)c2cccs2)c1`, the solubility (kinetic) was > 40.1 µg/mL.
As for `CCOc1ccc(NC(=O)c2nsc(Cl)c2Cl)cc1`, the figure is 1.3 µg/mL (≈ 4.1 µM); as for `Cc1cc(C(=O)NCCc2ccc(S(N)(=O)=O)cc2)c(C)o1`, > 48.4 µg/mL.
Consider `CC(NC(=O)c1c(O)c2ccccc2n(C)c1=O)c1ccccc1` (stereo not drawn), for which the solubility (kinetic) was < 0.3 µg/mL.
As for `Cc1c(Cl)cccc1NC(=O)C1CCN(c2cnccn2)CC1`, the figure is 2.1 µg/mL (≈ 6.35 µM); as for `COc1ccccc1CNC(=O)c1[nH]c(C)c(C(C)=O)c1C`, 13.3 µg/mL (≈ 44.3 µM).
In the case of `Cc1cccc(Nc2ccncc2S(=O)(=O)NC(=O)NC(C)C)c1`, the kinetic solubility was > 52.3 µg/mL.
`OC1C2CN3CN(C2)CC1(c1ccccc1)C3` (stereo not drawn): the kinetic solubility is > 34.5 µg/mL.
The result for `CCc1c(O)nc(SC2CC(=O)N(c3ccc(F)c(Cl)c3)C2=O)[nH]c1=O` (stereo not drawn) reads 55.7 µg/mL (≈ 140 µM); that for `CCOCCCNC(=O)C1CCCN1C(=O)Nc1ccccc1[N+](=O)[O-]` (stereo not drawn), > 54.7 µg/mL; that for `CCCc1c(C)nc(SCC(=O)C(C)(C)C)nc1OC(=O)N(C)C`, 46.8 µg/mL (≈ 132 µM).
`COc1cccc(NC(=O)c2ccccc2-c2ccccc2C(=O)O)c1` displayed a solubility (kinetic) of 51.9 µg/mL (≈ 149 µM).
In the case of `Cc1cccc(C)c1OCCCCN1CCCCC1.O=C(O)C(=O)O`, the solubility (kinetic) amounted to 45.4 µg/mL.
As for `COc1cc2c(cc1OC)C(=S)NC1(CCCC1)C2`, the figure is 5.5 µg/mL (≈ 19.8 µM); as for `COCC(=O)N(Cc1cc2cc(C)ccc2[nH]c1=O)c1cccc(C)c1C`, 12.3 µg/mL (≈ 33.7 µM).
For the compound `CCCOc1ccc(C(=O)NCC(C)(C)N2CCOCC2)cc1`, the kinetic solubility is > 48.1 µg/mL.
`CCC(=O)N1CCc2cc(S(=O)(=O)N3CCCC3)ccc21`: the kinetic solubility turned out to be 7.3 µg/mL (≈ 23.7 µM).
As for `Cc1ccccc1-n1nc2c(c1NC(=O)C(C)(C)C)CS(=O)(=O)C2`, the figure is > 52.1 µg/mL; as for `Cl.c1ccc(-c2ccc(OCCN3CCOCC3)cc2)cc1`, 29.8 µg/mL; as for `CC(C)Oc1ccc(CCN=C(N)N=C(N)N)cc1Cl.Cl`, > 50.1 µg/mL.
As for `COc1ccc(C)cc1NC1=NC(C)(C)CS1`, the figure is 36.1 µg/mL (≈ 144 µM); as for `N#Cc1ccc(NC(=O)Cn2cnc([N+](=O)[O-])c2)cc1`, 37.4 µg/mL (≈ 138 µM); as for `Cc1onc(-c2c(Cl)cccc2Cl)c1C(=O)Nc1ccc(Cl)cn1`, 3.9 µg/mL (≈ 10.2 µM).
As for `Cl.Nc1ccc(Oc2cc(N)cc(Oc3ccccc3)c2)cc1`, the figure is 30.1 µg/mL; as for `Nc1nc2c(F)c(F)c(F)cc2s1`, 21.7 µg/mL (≈ 106 µM).
The compound `O=C(NCCC1CC1(Cl)Cl)c1ccc([N+](=O)[O-])cc1` (stereo not drawn) gave a kinetic solubility of 36.9 µg/mL (≈ 122 µM).
The result for `CC(C)(C)S(=O)(=O)c1cnc(-c2ccccn2)nc1N` reads 34.1 µg/mL (≈ 117 µM); that for `CN1CCc2c(sc(/N=C/c3cc(C(C)(C)C)ccc3O)c2C#N)C1`, 3.4 µg/mL (≈ 9.62 µM); that for `CN(CC(=O)Nc1sccc1C(N)=O)S(=O)(=O)c1ccc(Cl)cc1`, 8.7 µg/mL (≈ 22.4 µM).
Take `C/C(=N\Nc1nc(C)cc(C)n1)c1ccc(C)o1`: the solubility (kinetic) was > 36.6 µg/mL.
`CCCCNc1ncnc2sc3c(c12)CCN(CCC)C3` displayed a kinetic solubility of 44.9 µg/mL (≈ 147 µM).
With `CC(=O)Nc1ccc(C)c(NC(=S)Nc2ccc(F)cc2)c1`, the kinetic solubility is 42.6 µg/mL (≈ 134 µM).
Compound `COc1ccccc1N(C)S(=O)(=O)c1ccc(Cl)c(C(=O)NCc2ccco2)c1` gave a kinetic solubility of 47.5 µg/mL (≈ 109 µM).
Take `O=C(CSc1ncn[nH]1)NCCc1ccc(Cl)cc1`: the solubility (kinetic) was > 44.5 µg/mL.

For orientation: kinetic solubility means solubility judged after dilution from a stock solution rather than from solid.
